Laboratory results from US20240009182A1, “REPURPOSED COMPOUND AS THERAPEUTIC FOR HPV-ASSOCIATED CANCERS” (The Chinese University of Hong Kong, priority 2022, published 2024).

Experiments:
[1] = system: HPV16 E7 protein in CaSki cells; test: HPV16 E7 protein level by western blotting in treated CaSki cells; type: cell-based; conditions: for E7 protein level after inhibitor treatment: 24-hr treatment
Excerpt: FIG. 1A. The representative immunoblots showing the level of HPV16 E7 constitutively expressed in CaSki cells upon treatment with inhibitors specific for USP7 (P5091, FT671, GNE-6776 and HBX 19818) and that targeting pan-USPs (PR-619) at the indicated concentrations. DMSO served as a vehicle control treatment. Cells were then collected and lysed, the levels of USP7 and HPV16 E7 proteins were detected using the respective specific antibodies. Beta-actin (β-actin) was included as a loading control. KDa: kilodalton. FIG. 1B. The bar chart showing the relative protein level of HPV16 E7 normalized by β-actin (n=3). Data are expressed as mean±standard error of the mean (SEM); Right panel showing the images at 100× magnification of the morphology of the CaSki cells treated with P5091, FT671, GNE-6776, HBX 19818 and PR-619 at concentrations indicated. FIG. 1C. The immunoblots showing the levels of USP7 and HPV16 E7 proteins in CaSki and C-33A (an HPV-null cervical cancer cell line) upon downregulation of USP7 using siRNA targeting specifically against human USP7. FIG. 1D. The immunoblots showing the protein level of HPV16 E7 treated with different concentrations of HBX 19818. CaSki cells were treated with different concentrations of HBX 19818 or DMSO as indicated. Total cell lysates were subjected to western blotting using USP7, β-actin and HPV16 E7 specific antibodies. FIG. 1E. The bar chart showing the relative protein level of HPV16 E7 treated with different concentrations of HBX 19818 normalized by β-actin (n=3). Data are expressed as mean±SEM. FIG. 1F. The curve chart showing the level of E7 protein with increasing concentrations of HBX 19818 treatment. The percentage of HPV16 E7 protein level was analyzed using the non-linear regression function in GraphPad™ Prism 9. Error bars show standard errors of the mean (SEM). *: P<0.05; […]***: P<0.001.
Firstly, we screened four USP7-specific inhibitors (P5091, FT671. GNE-6776, and HBX 19818) and 1 pan-USPs inhibitor (PR-619) to characterize their inhibitory effect on E7 expression in HPV-containing cancer cells. We treated CaSki (HPV16-positive) cancer cells with P5091 at 5 μM and 10 μM; FT671, GNE-6776 and PR-619 at 3 μM and 15 μM; as well as HBX 19818 at 3 μM and 6 μM. These concentrations were chosen based on the reported IC50 values. After 24-hr treatment, the cells were collected, and total cell lysates were resolved by SDS-PAGE. The expression levels of USP7 and E7 were detected using respective specific antibodies.

[2] = system: SCC25 (HPV-negative) cancer cells; test: Soft agar colony formation assay, SCC25; type: cell-based, human; conditions: SCC25, HBX 19818 versus DMSO, 14 days
Protocol: (§1) FIGS. 4A-4D HBX 19818 inhibited transformation of CaSki cells, but not SCC25 cells. The representative images showing the whole-well view and morphology of colonies formed by (FIG. 4A) CaSki (HPV16-positive) and (FIG. 4C) SCC25 (HPV-negative) cancer cells. Cells were seeded into 0.35% agarose gel containing DMEM with 10% FBS, and grew for 14 days. The agarose gel was stained with crystal violet, and images were taken using a digital camera. The colony morphology was observed using an optical microscope at 100× magnification. The bar chart comparing the number of colonies of (FIG. 4B) CaSki or (FIG. 4D) SCC25 cells with DMSO or HBX 19818 at concentrations indicated (n=3). Data indicated are mean±standard error of the mean (SEM). *: P<0.05.
(§2) We performed a soft agar colony formation assay to assess the ability of CaSki and SCC25 to grow in an anchorage-independent manner, in the presence or absence of HBX 19818 treatment. CaSki and SCC25 cells were seeded into 0.7% soft agar containing 2×DMEM and 20% FBS. The cells were incubated at 37° C. for 14 days. After a 2-week incubation, the agarose gel was stained with crystal violet. Colonies formed were counted and measured. We observed that CaSki cells treated with DMSO formed a dramatically higher number of colonies (88.17±5.92) than those treated with 6 μM of HBX 19818 (62.67±2.03) (FIGS. 4A and 4B). […]

[3] = system: CaSki (HPV16-positive) cancer cells; test: Soft agar colony formation assay, CaSki; type: cell-based, human; conditions: 14 days, DMSO 88.17±5.92
Protocol: as §1, §2

ubiquitin in CaSki cells = test: Endogenous ubiquitin level by western blotting in CaSki cells; type: cell-based, human; conditions: 3 μM, independent of cycloheximide
Protocol: (§3) FIGS. 2A-2C HBX 19818 treatment destabilized the steady-state level of HPV16 E7. FIG. 2A. Immunoblots showing the protein levels of HPV16 E7, endogenous ubiquitin and USP7. CaSki cells were either transfected with expression plasmids pcDNA 3.1 (left panel) or pcDNA:Flag-USP7, treated with 3 μM of HBX 19818. After 24 hr, the cells were treated with 10 μg/ml cycloheximide at different durations, as indicated. As a control, the cells were also treated with 5 μg/ml MG132 (a proteasome inhibitor) for 2 hrs prior to adding cycloheximide. The cells were harvested and subjected to western blotting using the respective specific antibodies as indicated. Beta-actin (β-actin) was included as a loading control. CHX: cycloheximide; KDa: kilodalton. FIG. 2B. The curves showing the level of HPV16 E7 protein when co-overexpressed with USP7 or treated with HBX 19818 at different time points. The stability of HPV16 E7 was analyzed using the one-phase exponential decay function in GraphPad™ Prism 9. Error bars indicate standard error of the mean (SEM). FIG. 2C. […] Data are expressed as mean±SEM. ns: not significant, P>0.05; *: P<0.05.
(§4) We next wanted to assess whether HBX 19818 can reverse USP7-mediated deubiquitination of E7. […] The expression levels of Flag-USP7, endogenous ubiquitin, and E7 were detected using anti-Flag-, ubiquitin- and HPV16 E7-specific antibodies, respectively (FIG. 2A). […]

[4] = system: CaSki (HPV16-positive) cancer cells; test: Cell proliferation, cell counting kit-8 (CCK8) assay, CaSki; type: cell-based, human; conditions: DMSO 10.38±0.90 folds
Protocol: (§5) FIGS. 3A-3B HBX 19818 inhibited proliferation of CaSki cells, but not SCC25 cells. The growth curves showing the cell proliferation of (FIG. 3A) CaSki (HPV16-positive) and (FIG. 3B) SCC25 (HPV-negative) cancer cells in the presence or absence of HBX 19818. Cell proliferation of CaSki was assessed using cell counting kit 8 (CCK8) assay. Cells were seeded into 96-well plates and incubated with either DMSO (vehicle control) or HBX 19818 at 3 μM or 6 μM for different days as indicated. Optical density (OD) value at 450 nm indicating relative proliferation was measured daily (n=3). Error bars indicate standard error of the mean (SEM).
(§6) We assessed the ability of CaSki (HPV16 positive cells) and SCC25, which are HPV-null cells, to proliferate using a cell counting kit-8 (CCK8) assay. This assay measures the ability of viable cells to metabolize soluble tetrazolium salt (WST-8) to orange formazan, in which the latter can be measured at optical density (OD) of […]. A day prior to drug treatment, CaSki and SCC25 were seeded into each well of 96-well plates at a density of 2000 cells/well in 100 μL of DMEM containing 10% FBS. The cells were treated with either DMSO (vehicle control) or HBX 19818 at 3 μM and 6 μM for 24, 72, and 96 hrs. […] The OD value of the medium at 450 nm was measured using LEDETECT 96 microplate reader (Labexim Products).

[5] = system: HPV16 E7 protein in CaSki cells; test: Cycloheximide chase assay of E7 stability in CaSki cells; type: cell-based; conditions: 3 μM for 24 hrs, then 10 μg/ml cycloheximide, E7 alone 40.32±0.94 mins
Protocol: as §3, §4

[6] = system: SCC25 (HPV-negative) cancer cells; test: Matrigel invasion assay, SCC25; type: cell-based, human; conditions: SCC25, HBX 19818 versus DMSO, 24-hr
Protocol: (§7) FIGS. 6A-6D. […] The representative images showing the cell invasion of (FIG. 6A) CaSki (HPV-positive) and (FIG. 6C) SCC25 (HPV-negative) cancer cells in the presence of DMSO (vehicle control) or HBX 19818 at concentrations indicated. Cells were seeded into the invasion chamber with plain medium, followed by treatment with either DMSO or HBX 19818 for 24 hours. Cell invasion was observed and recorded using an optical microscope at 40× magnification. The bar graph comparing the relative cell invasion ability of (FIG. 6B) CaSki and (FIG. 6D) SCC25 with DMSO or HBX 19818 (n=3). Data indicated are mean±standard error of the mean (SEM). **: P<0.01; ***: P<0.001.
(§8) We next examined the ability of CaSki and SCC25 cells to invade through Matrigel, which mimics the basement membrane. Approximately 5×10^4 of CaSki and SCC25 cells were seeded into the inserts containing serum-free DMEM medium with either DMSO or HBX 19818. We included MCF7, a non-invasive breast cancer cell line as a negative control. DMEM supplemented with 20% FBS was added into the bottom chamber to attract cells to migrate from the upper to the lower surface of the inserts. After 24-hr incubation at 37° C., the non-invasive cells on the upper surface were removed using cotton swabs. Cells on the lower surface were fixed and stained using hematoxylin. […]

[7] = system: CaSki (HPV-positive) cancer cells; test: Matrigel invasion assay, CaSki; type: cell-based, human; conditions: 24-hr, DMSO 100%
Protocol: as §7, §8

[8] = system: CaSki (HPV16-positive) cancer cells; test: Wound-healing (migration) assay, CaSki; type: cell-based, human; conditions: 24 hrs, DMSO 98.46%±0.36%
Protocol: (§9) The representative images showing the cell migration of (FIG. 5A) CaSki (HPV16-positive) and (FIG. 5C) SCC25 (HPV-negative) cancer cells after scratching. Cells were seeded into 12-well plate and scratched when reached 100% confluence, followed by incubation with DMSO (vehicle control) or HBX 19818 at concentrations indicated for 24 hours. Cell migration was observed and recorded using a time-lapse microscope every 6 hours. The bar chart comparing the relative coverage areas of (FIG. 5B) CaSki and (FIG. 5D) SCC25 with DMSO or HBX 19818 (n=3). Data indicated are mean±SEM. *: P<0.05; **: P<0.01.
(§10) We performed a wound-healing assay to ascertain the ability of CaSki and SCC25 cells to migrate under HBX 19818 treatment. Cells were seeded into a 12-well plate and cultured to reach 100% confluency. Cells were then scratched to make artificial wounds on the monolayer of cells and incubated with either DMSO or HBX 19818 at 3 μM or 6 μM. Cells migration was monitored using time-lapse microscopy where images were taken 6-hourly for a duration of 24 hrs.

[9] = system: SCC25 (HPV-negative) cancer cells; test: Cell proliferation, cell counting kit-8 (CCK8) assay, SCC25; type: cell-based, human; conditions: DMSO 10.45±0.88 folds
Protocol: as §5, §6

[10] = system: SCC25 (HPV-negative) cancer cells; test: Wound-healing (migration) assay, SCC25; type: cell-based, human; conditions: SCC25, HBX 19818 versus DMSO, 24 hrs
Protocol: as §9, §10

Row | Molecule | E7 protein level after inhibitor treatment ([1]; 15 μM) | Number of colonies [2] | Number of colonies ([3]; 3 μM) | Number of colonies ([3]; 6 μM) | Level of ubiquitin (ubiquitin in CaSki cells) | Cell proliferation ability (relative OD 450 nm) ([4]; 3 μM) [folds] | Cell proliferation ability (relative OD 450 nm) ([4]; 6 μM) [folds] | Half-life of E7 [5] [min] | Invasive ability [6] | Level of E7 with increasing concentration ([1]; 1.5 μM, 3.0 μM, 6.0 μM and 12.0 μM) | E7 protein level after inhibitor treatment ([1]; 3 μM and 6 μM, triplicate experiments) | IC50 ([1]; non-linear regression, read-out: Concentration sufficient to halve the level of E7 protein) [nM] | Relative invasive ability ([7]; 3 μM) | Relative invasive ability ([7]; 6 μM) | Cell migration ability (relative coverage area) ([8]; 3 μM) | Cell migration ability (relative coverage area) ([8]; 6 μM) | Cell proliferation ability (relative OD 450 nm) ([9]; SCC25, 3 μM) [folds] | Cell proliferation ability (relative OD 450 nm) ([9]; SCC25, 6 μM) [folds] | Cell migration ability [10]
1 | CCc1c(-c2ccc(C(=O)NC)nc2)cnc(N)c1-c1ccc(O)cc1 [GNE-6776] | decreased the E7 protein level drastically |  |  |  |  |  |  |  |  |  |  |  |  |  |  |  |  |  | 
2 | HBX 19818 |  | no difference in the number of colonies | 74.67±7.99 | 62.67±2.03 | increased level of ubiquitin | 7.82±1.14 | 4.29±0.31 | 27.45 ± 0.88 | similar | decreased at a dose-dependent manner | dramatic reduction of E7 protein level | 2800 | 30%±2.97% | 13.85%±1.21% | 85.58%±4.39% | 53.24%±8.96% | 10.12±0.94 | 7.29±1.24 | no differences were observed
